Assay results from patent US20230255943A1, “MMP-9 AND MMP-12 INHIBITION FOR TREATING SPINAL CORD INJURY OR RELATED INJURY TO NEUROLOGICAL TISSUE” (The University of Birmingham, priority 2020, published 2023).

What was measured:
[1] = tested on: mice with DC crush injury; experiment: Tape removal test (sensory function) after DC injury in mice; assay type: in vivo, mouse
Experimental: Functional testing after DC lesion and treatment was carried out as described previously (N. D. Fagoe, C. L. Attwell, R. Eggers, L. Tuinenbreijer, D. Kouwenhoven, J. Verhaagen, M. R. Mason, Evaluation of Five Tests for Sensitivity to Functional Deficits following Cervical or Thoracic Dorsal Column Transection in the Rat. PLoS One 11, e0150141 (2016)).
Briefly, animals (n=18/group) were first trained to master traversing a horizontal ladder for 1 w before functional testing. Baseline parameters were established by performing tests at 2-3d before injury. Animals were then tested at 2d, 1 w, 2 w, 3 w, 4 w, 5 w and 6 w after DC injury+treatment. Experiments were performed by an observer masked to the treatment conditions in the same order and time of day with each test performed for 3 individual trials.
(§1) Tape removal test (sensory function): The tape removal test determines touch perception from the left hind paw. After holding animals with both hind-paws extended, the time it took for the animal to detect and remove a piece of tape of 15×15 mm (Kip Hochkrepp, Bocholt, Germany) affixed to the palm of the left hind-paw was recorded and used to calculate the mean sensing time.

[2] = tested on: mice with DC crush injury; experiment: BSCB integrity by albumin immunoreactivity; assay type: in vivo, mouse; details: oral
From the text: After killing animals by exposure to rising concentrations of CO2, mice were intracardially perfused with 4% formaldehyde (TAAB Laboratories, Berkshire, UK) in 0.1M phosphate buffered saline (PBS). The lesion site+5 mm either side were dissected out, post-fixed in 4% formaldehyde and subjected to a graded series of sucrose solutions for cryoprotection. Spinal cords were blocked in OCT mounting compound (TAAB laboratories), sectioned longitudinally at 15 μm-thick using a cryostat (Brights Instruments, Huntingdon, UK) before being collected on charged glass slides (ThermoFisher Scientific, Loughborough, UK) and kept at −20° C. until required. Slides were numbered consecutively and sections from the middle of the lesion site were chosen for all immunohistochemical analyses, as described by previously (Surey S, Berry M, Logan A, Bicknell R, Ahmed Z. Differential cavitation, angiogenesis and wound-healing responses in injured mouse and rat spinal cords. Neuroscience 2014; 275: 62-80).
The integrity of the BSCB was assessed using albumin immunoreactivity in the spinal cord at 3 days after injury, as a surrogate marker of BSCB disruption. Sections were thawed at room temperature and washed in PBS before blocking endogenous […] in H2O2. […]

[3] = tested on: mice with DC crush injury; experiment: CSF biomarkers of SCI (S100β, NSE, GFAP, pNF-H, NF-L); assay type: in vivo, mouse; details: 3 d after injury
MMP-12 = target: T1, MMP-12 (Rattus norvegicus, UniProt Q63341); experiment: MMP-12 activity after DC injury in rats; assay type: in vivo; details: oral
T1 construct: from tissue; host or cells: Sprague-Dawley rat spinal cord lesion site
T1 sequence (Q63341 102-465): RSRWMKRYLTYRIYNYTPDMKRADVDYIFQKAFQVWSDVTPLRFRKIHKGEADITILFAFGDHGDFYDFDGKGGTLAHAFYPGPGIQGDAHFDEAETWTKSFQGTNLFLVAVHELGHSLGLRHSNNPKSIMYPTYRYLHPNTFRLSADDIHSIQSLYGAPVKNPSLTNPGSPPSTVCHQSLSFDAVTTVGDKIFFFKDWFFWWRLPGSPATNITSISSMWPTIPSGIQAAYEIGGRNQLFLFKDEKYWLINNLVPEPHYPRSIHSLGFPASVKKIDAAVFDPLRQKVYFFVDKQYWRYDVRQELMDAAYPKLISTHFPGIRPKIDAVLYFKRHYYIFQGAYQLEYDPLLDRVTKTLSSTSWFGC
Experimental: (§2) The efficacy of oral AZD3342 in the DC injury model in adult Sprague-Dawley rat was also assessed. Animals were divided into 6 groups: (1), Sham (control); (2), DC crush injury+Vehicle; (3), DC crush injury+15 mg/kg AZD3342; (4), DC crush injury+75 mg/kg […]; (5), DC crush injury+375 mg/kg AZD3342; and (6), DC crush injury+Melatonin. Animals were dosed twice daily with oral AZD3342 or vehicle with the experimenters masked to the treatment conditions. These experiments were performed with n=6 rats/group and repeated on 2-3 independent occasions (total n=12-18 rats/group/test).
The lesion site+3 mm either side for mouse (DC and CC SCI) and lesion site+5 mm either side for rat was dissected (n=6 mice/rats/group, 2 independent repeats, total n=12 mice/rats/group) and rapidly frozen in liquid N2 and stored at −80° C. until required. The enzymatic activity of MMP-9 and MMP-12 was determined in 96-well plates using the SensoLyte 520 MMP-9 and MMP-12 fluorimetric assay kit, according to the manufacturer's instructions (AnaSpec, Fremont, Calif., USA). Fluorescence intensity was measured using a Synergy H1 microplate reader (BioTek UK, Swindon, UK) at Ex/Em=490/520 nm.

[4] = tested on: rats with DC crush injury; experiment: CAP traces after DC injury in rats; assay type: in vivo; details: rat DC injury, 6 weeks
Experimental: as §2
Compound action potentials (CAP) were recorded at 6 w weeks after DC injury and treatment, as described previously—for example B. C. Hains, C. Y. Saab, A. C. […]
Briefly, the experimenter was masked to the treatment status of the animals and the CAP amplitude was calculated between the negative deflection after the stimulus artifact and the next peak of the wave. CAP area was also calculated by rectifying the CAP component (full-wave rectification) and measuring its area. To confirm our recordings and that a CAP could not be recorded, the dorsal half of the spinal cord was transected after each experiment between the stimulating and recording electrodes.

[5] = tested on: rats with DC crush injury; experiment: Ladder crossing (locomotor function) in rat DC model; assay type: in vivo; details: over 6 weeks
Experimental: as §2
(§3) Functional testing after DC lesion and treatment was carried out as described previously (N. D. Fagoe, C. L. Attwell, R. Eggers, L. Tuinenbreijer, D. Kouwenhoven, J. Verhaagen, M. R. Mason, Evaluation of Five Tests for Sensitivity to Functional Deficits following Cervical or Thoracic Dorsal Column Transection in the Rat. PLoS One 11, e0150141 (2016)). […]
Horizontal ladder test: This tests the animals locomotor function and is performed on a 0.9-meter-long horizontal ladder with a diameter of 15.5 cm and randomly adjusted rungs with variable gaps of 3.5-5.0 cm. Animals were assessed traversing the ladder and the left and right rear paw slips were recorded along with the total number of steps and the mean error rate as: the number of slips/total number of steps.

[6] = tested on: rats with DC crush injury; experiment: Tape sensing and removal (sensory function) in rat DC model; assay type: in vivo; details: over 6 weeks
Experimental: as §2, §3, §1

SMILES	sensory function, 24-h delayed treatment ([1]; optimal doses, 24 h delay vs immediate)	improvement in sensory function ([1]; oral) [%]	mean tape sensing and removal time ([1]; oral, by 3 weeks)	suppression of area of BSCB breakdown (albumin immunoreactivity) ([2]; 24 h delayed treatment) [%]	suppression of area of BSCB breakdown (albumin immunoreactivity) ([2]; immediately after injury, 3 days, vs DC+vehicle) [%]	levels of S100β, NSE, GFAP, pNF-H and NF-L in CSF [3]	MMP-12 activity (MMP-12)	electrophysiological CAP traces [4]	locomotor function (ladder crossing) [5]	sensory function (tape sensing and removal) [6]
C[C@]1(CS(=O)(=O)N2CC=C(C#Cc3cnc(C4CC4)nc3)CC2)NC(=O)NC1=O [AZD1236]	equally as effective as immediate delivery	85	indistinguishable from sham-treated groups	> 73	> 75	significantly attenuated all of these biomarkers to near sham-control levels				
C[C@]1(CS(=O)(=O)N2CCC(Oc3ccc(Cl)cn3)CC2)NC(=O)NC1=O [AZD3342, (5S)-5-[4-(5-chloro-pyridin-2-yloxy)-piperidine-1-sulfonylmethyl]-5-methylimidazolidine-2,4-dione]							significantly suppresses	significantly improved	significantly improved	significantly improved
